# Results from ChEMBL document CHEMBL4602715, “Efficacy and Tolerability of Pyrazolo[1,5-a]pyrimidine RET Kinase Inhibitors for the Treatment of Lung Adenocarcinoma” (ACS Med Chem Lett, 2020).
# Calls of active or inactive are those of the source. The calls are words filed in the database; no cut-off is given here.
# Tests used:
# [1] = Toxicity in CD-1 mouse assessed as pancreatic vacuolation at 10 mg/kg, po qd for 4 weeks by histopathological analysis; type: organism-based; conditions: in vivo, 672 h
# [2] = Toxicity in CD-1 mouse assessed as changes in GI neurons at 10 mg/kg, po qd for 4 weeks by histopathological analysis; type: organism-based; conditions: in vivo, 672 h
# [3] = Aqueous solubility of compound at pH 6.8 incubated for 24 hrs by HPLC/UV analysis; type: physicochemical
# [4] = Clearance in BALB/c mouse at 5 mg/kg, iv measured upto 24 hrs by LC-MS/MS analysis; type: ADME, organism-based; conditions: in vivo
# [5] = Half life in BALB/c mouse at 5 mg/kg, iv measured upto 24 hrs by LC-MS/MS analysis; type: ADME, organism-based; conditions: in vivo
# [6] = Volume of distribution at steady state in BALB/c mouse at 5 mg/kg, iv measured upto 24 hrs by LC-MS/MS analysis; type: ADME, organism-based; conditions: in vivo, read-out: Vdss
# [7] = AUC in BALB/c mouse at 5 mg/kg, iv measured upto 24 hrs by LC-MS/MS analysis; type: ADME, organism-based; design: dose 5 mg/kg, time < 24 hr, route intravenous; conditions: in vivo
# [8] = Cmax in BALB/c mouse at 5 mg/kg, iv measured upto 24 hrs by LC-MS/MS analysis; type: ADME, organism-based; design: dose 5 mg/kg, route intravenous; conditions: in vivo
# [9] = Toxicity in CD-1 mouse assessed as neuronal changes in brain at 10 mg/kg, po qd for 4 weeks by histopathological analysis; type: organism-based; conditions: in vivo, 672 h
# [10] = Toxicity in CD-1 mouse assessed as marginal zone depletion in spleen at 10 mg/kg, po qd for 4 weeks by histopathological analysis; type: organism-based; conditions: in vivo, 672 h
# [11] = test system: LC-2-ad; assay: Cytotoxicity against human LC2/ad cells assessed as reduction in cell viability incubated for 6 days by CellTiter Glo assay; type: cell-based; conditions: 144 h
# [12] = Toxicity in CD-1 mouse assessed as decrease in germinal centre cellularity in lymph nodes at 10 mg/kg, po qd for 4 weeks by histopathological analysis; type: organism-based; conditions: in vivo, 672 h
# [13] = Toxicity in CD-1 mouse assessed as changes in lung at 10 mg/kg, po qd for 4 weeks by histopathological analysis; type: organism-based; conditions: in vivo, 672 h
# [14] = test system: BaF3; assay: Cytotoxicity against mouse BA/F3 cells assessed as reduction in cell viability incubated for 48 hrs by brightglo-luciferase reporter gene assay; type: cell-based; conditions: BaF3, 48 h
# [15] = target: Bcr/Abl fusion protein (Homo sapiens, UniProt P00519); assay: Inhibition of BCR/ABL (unknown origin) transfected in mouse Ba/F3 cells assessed as reduction in cell viability incubated for 48 hrs by brightglo-luciferase reporter gene assay; type: cell-based, BaF3
# [16] = Oral bioavailability in BALB/c mouse at 20 mg/kg measured upto 24 hrs by LC-MS/MS analysis; type: ADME, organism-based; conditions: in vivo
# [17] = test system: Mus musculus; assay: In vivo inhibition of KIF5B/RET transfected in rat RIE cells xenografted in Harlan Foxn1 nude mouse assessed as reduction in RET phosphorylation at 30 mg/kg, po administered bid for 8 days and measured on day 8 after 24 hrs of dosing by Western blot analysis; type: functional, organism-based
# [18] = test system: Rattus norvegicus; assay: Antitumor activity against rat RIE cells transfected with KIF5B/RET xenografted in Harlan Foxn1 nude mouse assessed as tumor stasis at 10 mg/kg, po administered bid for 8 days; type: functional, organism-based
# [19] = test system: Mus musculus; assay: In vivo inhibition of KIF5B/RET transfected in rat RIE cells xenografted in Harlan Foxn1 nude mouse assessed as reduction in RET phosphorylation at 30 mg/kg, po administered bid for 8 days and measured on day 8 after 5 hrs of dosing by Western blot analysis; type: functional, organism-based
# [20] = Drug uptake in tumor of Harlan Foxn1 nude mouse xenografted with rat RIE cells transfected with KIF5B/RET at 3 to 30 mg/kg, po administered bid for 8 days by LC-MS/MS analysis; type: ADME, organism-based, Neoplasm; conditions: in vivo, 192 h
# [21] = test system: Rattus norvegicus; assay: Antitumor activity against rat RIE cells transfected with KIF5B/RET xenografted in Harlan Foxn1 nude mouse assessed as inhibition of tumor growth at 3 mg/kg, po administered bid for 8 days; type: functional, organism-based
# [22] = AUC in BALB/c mouse at 20 mg/kg, po measured upto 24 hrs by LC-MS/MS analysis; type: ADME, organism-based; design: dose 20 mg/kg, time < 24 hr, route oral; conditions: in vivo
# [23] = Ratio of Cmax in BALB/c mouse brain to plasma at 20 mg/kg, po measured upto 24 hrs by LC-MS/MS analysis; type: ADME, organism-based; conditions: brain and plasma
# [24] = Drug uptake in plasma of Harlan Foxn1 nude mouse xenografted with rat RIE cells transfected with KIF5B/RET at 3 to 30 mg/kg, po administered bid for 8 days by LC-MS/MS analysis; type: ADME, organism-based; conditions: in vivo, 192 h
# [25] = Half life in BALB/c mouse at 20 mg/kg, po measured upto 24 hrs by LC-MS/MS analysis; type: ADME, organism-based; conditions: in vivo
# [26] = test system: Rattus norvegicus; assay: Antitumor activity against rat RIE cells transfected with KIF5B/RET xenografted in Harlan Foxn1 nude mouse assessed as tumor regression at 30 mg/kg, po administered bid for 8 days; type: functional, organism-based
# [27] = target: T1, Voltage-gated inwardly rectifying potassium channel KCNH2 (Homo sapiens, UniProt Q12809); assay: Displacement of [3H]-dofetilide from human ERG expressed in CHO cells incubated for 90 mins by microbeta scintillation counting method; type: cell-based
# [28] = Toxicity in Harlan Foxn1 nude mouse xenografted with rat RIE cells transfected with KIF5B/RET assessed as adverse events at 3 to 30 mg/kg, po administered bid for 8 days; type: organism-based; conditions: in vivo, 192 h
# [29] = target: T1, Voltage-gated inwardly rectifying potassium channel KCNH2; assay: Inhibition of human ERG expressed in human embryonic kidney cells by manual patch clamp assay; type: cell-based; conditions: read-out: IC50
# [30] = Cmax in BALB/c mouse at 20 mg/kg, po measured upto 24 hrs by LC-MS/MS analysis; type: ADME, organism-based; design: dose 20 mg/kg, route oral; conditions: in vivo
# [31] = Ratio of AUC in BALB/c mouse brain to plasma at 20 mg/kg, po measured upto 24 hrs by LC-MS/MS analysis; type: ADME, organism-based; conditions: brain and plasma
# T1 sequence (Q12809 whole entry): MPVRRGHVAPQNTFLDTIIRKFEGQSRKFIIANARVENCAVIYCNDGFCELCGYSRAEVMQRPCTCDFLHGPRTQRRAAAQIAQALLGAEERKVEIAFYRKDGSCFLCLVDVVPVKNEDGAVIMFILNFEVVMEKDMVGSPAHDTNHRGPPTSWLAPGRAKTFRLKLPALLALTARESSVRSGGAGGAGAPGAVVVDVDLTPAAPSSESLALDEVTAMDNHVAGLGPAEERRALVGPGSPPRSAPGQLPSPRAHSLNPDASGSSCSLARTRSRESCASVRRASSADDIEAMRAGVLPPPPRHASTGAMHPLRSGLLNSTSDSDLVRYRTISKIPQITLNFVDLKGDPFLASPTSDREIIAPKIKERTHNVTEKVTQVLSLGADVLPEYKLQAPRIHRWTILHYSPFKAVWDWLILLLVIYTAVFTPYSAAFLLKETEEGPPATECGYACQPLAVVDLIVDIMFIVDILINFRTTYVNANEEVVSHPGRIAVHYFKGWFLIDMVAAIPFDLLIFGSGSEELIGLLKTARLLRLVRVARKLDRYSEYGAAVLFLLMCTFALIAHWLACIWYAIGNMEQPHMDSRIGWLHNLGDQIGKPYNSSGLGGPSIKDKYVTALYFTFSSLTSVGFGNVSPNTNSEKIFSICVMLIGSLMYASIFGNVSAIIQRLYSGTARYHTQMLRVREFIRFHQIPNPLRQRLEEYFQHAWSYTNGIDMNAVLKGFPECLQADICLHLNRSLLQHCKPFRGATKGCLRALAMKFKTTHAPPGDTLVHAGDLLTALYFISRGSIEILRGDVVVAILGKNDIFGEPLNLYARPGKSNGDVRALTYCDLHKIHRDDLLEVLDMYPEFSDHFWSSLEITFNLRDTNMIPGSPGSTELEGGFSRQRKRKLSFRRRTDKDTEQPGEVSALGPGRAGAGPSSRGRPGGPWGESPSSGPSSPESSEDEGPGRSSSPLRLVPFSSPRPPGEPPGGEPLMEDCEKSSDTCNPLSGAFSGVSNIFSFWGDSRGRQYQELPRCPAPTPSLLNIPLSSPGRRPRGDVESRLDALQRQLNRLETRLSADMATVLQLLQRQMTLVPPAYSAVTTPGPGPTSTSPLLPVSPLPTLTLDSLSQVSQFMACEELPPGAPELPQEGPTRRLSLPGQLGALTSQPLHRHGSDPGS
# Sequence of Bcr/Abl fusion protein (P00519 whole entry, the tested form may be a part): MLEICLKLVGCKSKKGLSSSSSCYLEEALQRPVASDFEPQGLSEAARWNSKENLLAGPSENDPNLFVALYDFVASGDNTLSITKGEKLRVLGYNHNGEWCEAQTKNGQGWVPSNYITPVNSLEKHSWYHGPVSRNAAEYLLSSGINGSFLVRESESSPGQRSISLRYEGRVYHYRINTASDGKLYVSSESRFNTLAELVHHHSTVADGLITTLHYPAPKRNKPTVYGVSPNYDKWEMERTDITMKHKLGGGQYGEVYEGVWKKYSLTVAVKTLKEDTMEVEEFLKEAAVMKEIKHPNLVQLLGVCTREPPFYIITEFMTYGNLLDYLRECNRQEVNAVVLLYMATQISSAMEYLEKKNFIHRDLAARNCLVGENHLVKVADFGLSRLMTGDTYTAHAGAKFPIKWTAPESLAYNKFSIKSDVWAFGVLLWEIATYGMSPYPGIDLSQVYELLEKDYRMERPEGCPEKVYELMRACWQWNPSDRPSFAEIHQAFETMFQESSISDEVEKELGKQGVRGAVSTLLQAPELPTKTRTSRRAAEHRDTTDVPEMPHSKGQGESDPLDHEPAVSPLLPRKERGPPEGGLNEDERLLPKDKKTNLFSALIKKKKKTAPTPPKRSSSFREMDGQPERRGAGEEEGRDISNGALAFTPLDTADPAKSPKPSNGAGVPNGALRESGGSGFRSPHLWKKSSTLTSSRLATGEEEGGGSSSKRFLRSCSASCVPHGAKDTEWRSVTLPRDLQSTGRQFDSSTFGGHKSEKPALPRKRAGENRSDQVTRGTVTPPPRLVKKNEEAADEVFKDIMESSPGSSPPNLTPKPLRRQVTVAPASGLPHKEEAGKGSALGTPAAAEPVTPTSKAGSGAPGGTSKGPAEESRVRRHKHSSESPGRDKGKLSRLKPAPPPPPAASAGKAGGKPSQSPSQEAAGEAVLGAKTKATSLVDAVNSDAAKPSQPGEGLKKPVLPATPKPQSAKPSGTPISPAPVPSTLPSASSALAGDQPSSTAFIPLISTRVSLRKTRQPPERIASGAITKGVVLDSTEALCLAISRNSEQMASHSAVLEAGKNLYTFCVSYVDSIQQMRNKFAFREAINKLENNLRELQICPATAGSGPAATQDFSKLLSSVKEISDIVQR
# Sequence of Bcr/Abl fusion protein (P11274 whole entry, further chain, the tested form may be a part): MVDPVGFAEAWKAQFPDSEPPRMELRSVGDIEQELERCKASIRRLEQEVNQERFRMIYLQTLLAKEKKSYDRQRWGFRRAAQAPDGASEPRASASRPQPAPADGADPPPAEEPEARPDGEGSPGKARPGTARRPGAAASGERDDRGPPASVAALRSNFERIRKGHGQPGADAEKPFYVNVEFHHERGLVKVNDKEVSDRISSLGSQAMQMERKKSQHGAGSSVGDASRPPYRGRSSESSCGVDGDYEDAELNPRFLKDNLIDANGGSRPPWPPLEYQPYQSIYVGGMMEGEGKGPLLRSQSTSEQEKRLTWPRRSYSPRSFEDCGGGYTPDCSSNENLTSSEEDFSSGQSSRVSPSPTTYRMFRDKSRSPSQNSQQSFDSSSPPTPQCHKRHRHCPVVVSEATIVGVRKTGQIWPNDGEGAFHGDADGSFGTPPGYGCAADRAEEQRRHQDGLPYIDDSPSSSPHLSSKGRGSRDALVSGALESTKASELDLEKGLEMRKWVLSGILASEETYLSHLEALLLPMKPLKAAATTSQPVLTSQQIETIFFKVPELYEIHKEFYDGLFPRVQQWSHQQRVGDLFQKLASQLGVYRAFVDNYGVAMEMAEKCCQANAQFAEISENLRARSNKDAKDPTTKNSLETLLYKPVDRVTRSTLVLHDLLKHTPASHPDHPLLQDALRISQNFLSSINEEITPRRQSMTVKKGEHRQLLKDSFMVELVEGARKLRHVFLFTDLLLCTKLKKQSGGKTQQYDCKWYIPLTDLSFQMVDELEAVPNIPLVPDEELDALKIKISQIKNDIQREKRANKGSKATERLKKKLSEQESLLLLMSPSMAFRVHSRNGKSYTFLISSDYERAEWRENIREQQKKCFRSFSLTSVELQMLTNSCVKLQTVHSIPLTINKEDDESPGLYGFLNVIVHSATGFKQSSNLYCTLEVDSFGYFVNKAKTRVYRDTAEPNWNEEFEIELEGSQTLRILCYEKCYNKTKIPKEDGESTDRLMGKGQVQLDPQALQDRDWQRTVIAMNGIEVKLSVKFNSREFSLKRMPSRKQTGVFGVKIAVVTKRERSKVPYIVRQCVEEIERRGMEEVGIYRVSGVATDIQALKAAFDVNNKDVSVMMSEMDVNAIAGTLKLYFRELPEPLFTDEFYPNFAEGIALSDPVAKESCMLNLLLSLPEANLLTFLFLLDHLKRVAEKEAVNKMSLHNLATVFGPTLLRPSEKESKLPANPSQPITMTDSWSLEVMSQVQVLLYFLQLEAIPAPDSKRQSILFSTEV
smiles,measurement,setting,value
COc1ccc(-c2cnn3c(N)c(-c4ccccc4)c(NC4CC(C)(C)N(C)C(C)(C)C4)nc23)cc1OC,Activity,[1],Toxic
same,Activity,[2],Non-Toxic
same,solubility at 24 h,[3],48 µM
same,clearance,[4],51 mL/min/kg
same,half-life,[5],3.9 h
same,Vd,[6],13 L/kg
same,AUC at 24 h,[7],3.2 µM·h
same,Cmax,[8],1100 nM
same,Activity,[9],Non-Toxic
same,Activity,[10],Toxic
same,IC50,[11],1.5 µM
same,Activity,[12],Toxic
same,Activity,[13],Non-Toxic
COc1ccc(-c2cnn3c(N)c(-c4ccccc4)c(OCCCN(C)C)nc23)cc1OC,solubility at 24 h,[3],88 µM
same,IC50,[11],2.8 µM
COC(=O)Nc1ccc(-c2c(OC3CCN(C)CC3)nc3c(-c4ccc(OC)c(OC)c4)cnn3c2N)cc1,IC50,[14],5 µM
same,IC50,[15],5.1 µM
COc1ccc(-c2cnn3c(N)c(-c4ccccc4)c(NCCCN(C)C)nc23)cc1OC,solubility at 24 h,[3],> 175 µM
same,IC50,[11],> 10 µM
CN1C(C)(C)CC(Nc2nc3c(-c4ccc(C(=O)N5C[C@@H]6C[C@H]5CO6)cc4)cnn3c(N)c2-c2ccccc2)CC1(C)C,bioavailability,[16],64%
same,inhibition,[17],inactive
same,Activity,[18],Active
same,inhibition,[19],Active
same,Drug uptake,[20],Active
same,Activity,[21],Active
same,AUC at 24 h,[22],6.8 µM·h
same,clearance,[4],54 mL/min/kg
same,half-life,[5],1.8 h
same,Kp at 24 h,[23],0.13
same,Drug uptake,[24],Active
same,Vd,[6],7.8 L/kg
same,AUC at 24 h,[7],2.6 µM·h
same,half-life,[25],2.5 h
same,Cmax,[8],1600 nM
same,Activity,[26],Active
same,IC50,[27],4.7 µM
same,Activity,[28],Non-Toxic
same,IC50,[29],2.8 µM
same,Cmax,[30],880 nM
same,IC50,[11],3.4 µM
same,Kp at 24 h,[31],0.15
COc1ccc(-c2cnn3c(N)c(-c4nccs4)c(OC4CCN(C)CC4)nc23)cc1OC,IC50,[14],> 11 µM
same,IC50,[15],> 10 µM
